This is an account of results in patent US20250241882A1, “COMPOSITION FOR TREATMENT OF THE SKIN” (DR. KURT WOLFF GMBH & CO. KG, priority 2022, published 2025).

What all share (format): cell-based, human
In experiment [1] the test system is HaCaT cells. The experiment is described as follows: MTT assay, cell viability. The conditions noted are these: after 48 h and 72 h of cultivation, versus control without DMG. The procedure:
(§1) 1. As part of an in-vitro study, the effect of Na-dimethylglycinate was investigated in a cell culture model with human horn-forming keratinocyte cells. For this purpose, HaCaT cells were cultured for 1, 3, 5, and 7 days in DMEM medium (including fetal calf serum and an antibiotic-antimycotic mix) and, among other things, the viability, proliferation and migration of the cells were determined using suitable measuring methods, as well as the expression of the growth factors relevant for cell growth.
For this measurement, a so-called MTT assay was used to determine cellular metabolic activity as an indicator of cell viability and cytotoxicity. This colorimetric assay is based on the reduction of a yellow tetrazolium salt (3-(4,5-dimethylthiazol-2-yl)-2,5-diphenyltetrazolium bromide or MTT) to violet formazan crystals by metabolically active cells.
Human epidermal keratinocyte cells (HaCaT) were seeded in a 96-well plate at a cell density of 5,000 cells/well and cultured in medium (DMEM with 10% FBS, 1% penicillin-streptomycin, 0.5% Fungizone). […]
Cell viability was determined using MTT assay. The absorbance was measured using quadruple determination and standardized to the control at 24 h. […]
(In general: Formazan colour is commonly taken as a measure of viable cells.)

Experiment [2] relates to HaCaT cells. The experiment is described as follows: CyQUANT assay, cell proliferation. The conditions noted are these: after 48 h and 72 h of cultivation, versus control without DMG. The method, then:
as §1
To measure proliferation, a so-called CyQUANT assay was performed. In this fluorescence-based assay, the fluorescent dye used binds to DNA (deoxyribonucleic acid), whereby the content of cellular DNA is a direct measure of the number of cells within a sample. Human epidermal keratinocyte cells (HaCaT) were seeded in a 96-well plate at a cell density of 5,000 cells/well and cultured in medium (DMEM with 10% FBS, 1% penicillin-streptomycin, 0.5% Fungizone). The next day and after a further 24 h, 48 h and 72 h of cultivation at 37° C. and 5 vol. % CO2, the cell culture medium was changed without (control) or with the active ingredient concentrations already contained. […]
Cell proliferation was determined using the CyQUANT assay. Fluorescence was measured using triple determination each time and standardized to the control at 24 h. […]

Experiment [3] has as its system HaCaT cells. The experiment is described as follows: wound healing assay, cell migration. The settings on record: different DMG concentrations, 16 h, 20 h, 24 h, compared to the control without DMG. The procedure:
as §1
To measure migration, a so-called wound healing assay was performed, based on previously published studies in T. Kawabata, T. Otsuka, K. Fujita, G. Sakai, R. Matsushima-Nishiwaki, O. Kozawa, H. Tokuda, International journal of molecular medicine 2018, 42, 3,149-3,156. The principle is based on measuring the migration of cells over time on a cultivation surface yet to be colonized. […]
At time 0 h, the wound was created and images were taken after 16 h, 20 h, and 24 h of cultivation. Based on the images, the cultivation surface, which had not yet been populated by cells, was determined using the ImageJ software. The measured values are standardized to the time point 0 h (maximum size of the wound) and given in %.

In the next experiment the test system is VEGF. Put plainly: VEGF gene expression by qRT-PCR in HaCaT cells. The settings on record: after 24 h of cultivation, standardized to GAPDH, versus control. The method, then:
VEGF (vascular endothelial growth factor) promotes the growth and formation of new blood and lymph vessels. Gene expression was measured using a standard method of quantitative real-time PCR (qRT-PCR).
Human epidermal keratinocyte cells (HaCaT) were seeded in a 6-well plate at a cell density of 140,000 cells/well and cultured in medium (DMEM with 10% FBS, 1% penicillin-streptomycin, 0.5% Fungizone) at 37° C. and 5 vol. % CO2. The next day, the cell culture medium was changed without (control) and with the active ingredient concentrations already contained and the cells were harvested after 24 h. Gene expression was measured using qRT-PCR based on previously published studies in B. V. Diaz, M.-C. Lenoir, A. Ladoux, C. Frelin, M. Demarchez, S. Michel, Journal of Biological Chemistry 2000, 275, 642-650.
Shown is the relative gene expression of VEGF determined by qRT-PCR (triple determination, standardized to the corresponding gene expression of a constitutively expressed gene; GAPDH-glyceraldehyde-3-phosphate dehydrogenase). The mean value with standard deviation is given.

“Also recorded” adds a separate entry of the source.

With `CN(C)CC(=O)[O-].[Na+]` [DMG, sodium dimethylglycinate], the “cell viability (MTT assay)” value in the experiment on HaCaT cells [1] was “significant increase”. Also, the “cell proliferation (CyQUANT assay)” value in the experiment with HaCaT cells [2] is “significant increase”. In addition, the “migration and wound closure” value with HaCaT cells [3] was “significantly faster”. Besides, in the experiment on VEGF, the “relative gene expression of VEGF” value is reported as “significant increase; also recorded: significantly increased”.
